pIC50: −log10 of the molar value.
Tested on: 857933-349-R-J2-PDC complex spheroid viability
Assay: Anticancer human tumor 857933-349-R-J2-PDC patient-derived colon adenocarcinoma cell line growth inhibition [POLQ]
Conditions: for pIC50: curve of first compound; for viability, T/C: stronger effect = lower value
Procedure, shortened: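 Complex spheroid viability model combining PDC tumour cells with endothelial (HUVEC) and MSC stromal cells. Novobiocin, ART-558 or RP6685 were tested singly and in combination with standard and investigational anticancer drugs. Each was titrated in half-log steps from near clinical Cmax, or from 10 microM where Cmax was unknown.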

[1] = second compound 0.0316 µM, first compound 0.0316 µM
[2] = second compound 0.0316 µM, first compound 0.1 µM
[3] = second compound 0.0316 µM, first compound 0.316 µM
[4] = second compound 0.0316 µM, first compound 1 µM
[5] = second compound 0.0316 µM, first compound 3.16 µM
[6] = second compound 0.0316 µM, first compound 10 µM
[7] = second compound 0.1 µM, first compound 0.0316 µM
[8] = second compound 0.1 µM, first compound 0.1 µM
[9] = second compound 0.1 µM, first compound 0.316 µM
[10] = second compound 0.1 µM, first compound 1 µM
[11] = second compound 0.1 µM, first compound 3.16 µM
[12] = second compound 0.1 µM, first compound 10 µM
[13] = second compound 0.316 µM, first compound 0.0316 µM
[14] = second compound 0.316 µM, first compound 0.1 µM
[15] = second compound 0.316 µM, first compound 0.316 µM
[16] = second compound 0.316 µM, first compound 1 µM
[17] = second compound 0.316 µM, first compound 3.16 µM
[18] = second compound 0.316 µM, first compound 10 µM
[19] = second compound 1 µM, first compound 0.0316 µM
[20] = second compound 1 µM, first compound 0.1 µM
[21] = second compound 1 µM, first compound 0.316 µM
[22] = second compound 1 µM, first compound 1 µM
[23] = second compound 1 µM, first compound 3.16 µM
[24] = second compound 1 µM, first compound 10 µM
[25] = second compound 3.16 µM, first compound 0.0316 µM
[26] = second compound 3.16 µM, first compound 0.1 µM
[27] = second compound 3.16 µM, first compound 0.316 µM
[28] = second compound 3.16 µM, first compound 1 µM
[29] = second compound 3.16 µM, first compound 3.16 µM
[30] = second compound 3.16 µM, first compound 10 µM
[31] = second compound 10 µM, first compound 0.0316 µM
[32] = second compound 10 µM, first compound 0.1 µM
[33] = second compound 10 µM, first compound 0.316 µM
[34] = second compound 10 µM, first compound 1 µM
[35] = second compound 10 µM, first compound 3.16 µM
[36] = second compound 10 µM, first compound 10 µM
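Also: spheroids exposed to compounds for seven days before readout.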

With `CCc1cc2c(N3CCc4c(cc(Cn5ccnc5)cc4-c4cn(C)nc4C(F)(F)F)C3=O)ccnc2c(OC)n1` + COC1C(OC(N)=O)C(O)C(Oc2ccc3c(O)c(NC(=O)c4ccc(O)c(CC=C(C)C)c4)c(=O)oc3c2C)OC1(C)C the pIC50 (second compound 0.0316 µM) was < 5.00, the pIC50 (second compound 0.1 µM) was 5.12 and the pIC50 (second compound 0.316 µM) was < 5.00. The pIC50 (second compound 1 µM) was < 5.00, the pIC50 (second compound 3.16 µM) was < 5.00 and the pIC50 (second compound 10 µM) was < 5.00. It also gave a viability, T/C [1] of 88.9%, a viability, T/C [2] of 93.4% and a viability, T/C [3] of 106%. For the same compound, the viability, T/C [4] was 75.6%, the viability, T/C [5] was 66% and the viability, T/C [6] was 51.8%. The viability, T/C [7] was 103%, the viability, T/C [8] was 93.1% and the viability, T/C [9] was 80.2%. It also gave a viability, T/C [10] of 84.2%, a viability, T/C [11] of 61% and a viability, T/C [12] of 44.6%. For the same compound, the viability, T/C [13] was 90.4%, the viability, T/C [14] was 104% and the viability, T/C [15] was 73.4%. It also gave a viability, T/C [16] of 71.5%, a viability, T/C [17] of 65.4% and a viability, T/C [18] of 58.4%. For the same compound, the viability, T/C [19] was 90%, the viability, T/C [20] was 79% and the viability, T/C [21] was 74.9%. The viability, T/C [22] was 69.8%, the viability, T/C [23] was 61.3% and the viability, T/C [24] was 59.5%. The viability, T/C [25] was 96.3%, the viability, T/C [26] was 98.2% and the viability, T/C [27] was 82.7%. It also gave a viability, T/C [28] of 73.6%, a viability, T/C [29] of 75.3% and a viability, T/C [30] of 58.2%. The viability, T/C [31] was 99.6%, the viability, T/C [32] was 94.5% and the viability, T/C [33] was 75.6%. The viability, T/C [34] was 92.3%, the viability, T/C [35] was 59.7% and the viability, T/C [36] was 62.8%.

`COc1cc2cc(C(=O)CCC(=O)O)sc2cc1OC` + COC1C(OC(N)=O)C(O)C(Oc2ccc3c(O)c(NC(=O)c4ccc(O)c(CC=C(C)C)c4)c(=O)oc3c2C)OC1(C)C was tested, and the pIC50 (second compound 0.0316 µM) was < 5.00, the pIC50 (second compound 0.1 µM) was < 5.00 and the pIC50 (second compound 0.316 µM) was < 5.00. For the same compound, the pIC50 (second compound 1 µM) was < 5.00, the pIC50 (second compound 3.16 µM) was < 5.00 and the pIC50 (second compound 10 µM) was < 5.00. It also gave a viability, T/C [1] of 82%, a viability, T/C [2] of 98.3% and a viability, T/C [3] of 79.9%. It also gave a viability, T/C [4] of 79%, a viability, T/C [5] of 106% and a viability, T/C [6] of 93.8%. For the same compound, the viability, T/C [7] was 91.4%, the viability, T/C [8] was 95.5% and the viability, T/C [9] was 98.1%. The viability, T/C [10] was 79.2%, the viability, T/C [11] was 92.5% and the viability, T/C [12] was 111%. It also gave a viability, T/C [13] of 104%, a viability, T/C [14] of 102% and a viability, T/C [15] of 84%. For the same compound, the viability, T/C [16] was 97.2%, the viability, T/C [17] was 84.4% and the viability, T/C [18] was 79.7%. For the same compound, the viability, T/C [19] was 110%, the viability, T/C [20] was 112% and the viability, T/C [21] was 103%. The viability, T/C [22] was 94.2%, the viability, T/C [23] was 110% and the viability, T/C [24] was 122%. It also gave a viability, T/C [25] of 90.6%, a viability, T/C [26] of 91.1% and a viability, T/C [27] of 86.6%. For the same compound, the viability, T/C [28] was 77.4%, the viability, T/C [29] was 84.1% and the viability, T/C [30] was 90%. For the same compound, the viability, T/C [31] was 76.4%, the viability, T/C [32] was 98.1% and the viability, T/C [33] was 108%. For the same compound, the viability, T/C [34] was 116%, the viability, T/C [35] was 112% and the viability, T/C [36] was 91.9%.

With `Cn1ncnc1[C@H]1c2n[nH]c(=O)c3cc(F)cc(c23)N[C@@H]1c1ccc(F)cc1` + COC1C(OC(N)=O)C(O)C(Oc2ccc3c(O)c(NC(=O)c4ccc(O)c(CC=C(C)C)c4)c(=O)oc3c2C)OC1(C)C the pIC50 (second compound 0.0316 µM) was < 7.00, the pIC50 (second compound 0.1 µM) was < 7.00 and the pIC50 (second compound 0.316 µM) was < 7.00. The pIC50 (second compound 1 µM) was < 7.00, the pIC50 (second compound 3.16 µM) was < 7.00 and the pIC50 (second compound 10 µM) was < 7.00. The viability, T/C (second compound 0.0316 µM, first compound 0.000316 µM) was 76.1%, the viability, T/C (second compound 0.0316 µM, first compound 0.001 µM) was 95.3% and the viability, T/C (second compound 0.0316 µM, first compound 0.00316 µM) was 77.6%. It also gave a viability, T/C (second compound 0.0316 µM, first compound 0.01 µM) of 92.6%, a viability, T/C [1] of 90.5% and a viability, T/C [2] of 100%. The viability, T/C (second compound 0.1 µM, first compound 0.000316 µM) was 106%, the viability, T/C (second compound 0.1 µM, first compound 0.001 µM) was 88.8% and the viability, T/C (second compound 0.1 µM, first compound 0.00316 µM) was 102%. It also gave a viability, T/C (second compound 0.1 µM, first compound 0.01 µM) of 96.2%, a viability, T/C [7] of 96% and a viability, T/C [8] of 84.7%. The viability, T/C (second compound 0.316 µM, first compound 0.000316 µM) was 89.2%, the viability, T/C (second compound 0.316 µM, first compound 0.001 µM) was 98.7% and the viability, T/C (second compound 0.316 µM, first compound 0.00316 µM) was 98.9%. It also gave a viability, T/C (second compound 0.316 µM, first compound 0.01 µM) of 77.8%, a viability, T/C [13] of 93.1% and a viability, T/C [14] of 88.4%. For the same compound, the viability, T/C (second compound 1 µM, first compound 0.000316 µM) was 75.9%, the viability, T/C (second compound 1 µM, first compound 0.001 µM) was 93.4% and the viability, T/C (second compound 1 µM, first compound 0.00316 µM) was 76.4%. The viability, T/C (second compound 1 µM, first compound 0.01 µM) was 77.8%, the viability, T/C [19] was 97.7% and the viability, T/C [20] was 107%. It also gave a viability, T/C (second compound 3.16 µM, first compound 0.000316 µM) of 78.6%, a viability, T/C (second compound 3.16 µM, first compound 0.001 µM) of 100% and a viability, T/C (second compound 3.16 µM, first compound 0.00316 µM) of 95.3%. The viability, T/C (second compound 3.16 µM, first compound 0.01 µM) was 92.8%, the viability, T/C [25] was 87.8% and the viability, T/C [26] was 77.7%. The viability, T/C (second compound 10 µM, first compound 0.000316 µM) was 60.5%, the viability, T/C (second compound 10 µM, first compound 0.001 µM) was 94.8% and the viability, T/C (second compound 10 µM, first compound 0.00316 µM) was 101%. It also gave a viability, T/C (second compound 10 µM, first compound 0.01 µM) of 76.2%, a viability, T/C [31] of 94% and a viability, T/C [32] of 103%.

Source: PubChem BioAssay AID1963836 (Molecular Pharmacology Branch, DTP, NCI, 2024)
